Laboratory results published in patent US4057530A, “2-Phenyl-indole derivatives and process for preparing the same” (priority 1974, dated 1977).
Several values for one entry are separate records, joined by “and”; a condition that tells them apart may be missing. Identical values can stand only once. Entries after “also recorded” stand apart in the source; their conditions may differ.

What was measured:
[1] = Static thermostability of stabilized resin, simplified method (GARDNER sub-scale), Compound D; conditions: 185° C
Experimental: (§1) The stabilizing power of the substances of the invention was studied from two points of view:
(§2) These studies were performed with six different formulae of vinyl resins (hereinafter referred to as Compounds).
(§3) The different compounds were mixed and calendered in a mixer of which the cylinders were heated to 160° C. The rigid sheets so obtained were then heated in an oven to a temperature between 180° C and 215° C, until incipient carbonization.
(§4) A stove with rotating drums, ventilated and equipped with a thermostat was used for this operation. In the trials described hereunder, the behaviour of a sheet containing the stabilizer to be tested was compared to that of a sheet of the same formula but containing 2-phenyl-indole as stabilizer.
(§5) 2. It is also possible to use a simplified method which is more rapid and with which valid results are also obtained: a reference scale is drawn up with sheets of thermally treated polyvinyl chloride, of which the colourations have been definitely determined in GARDNER degrees as above. A GARDNER sub-scale is thus obtained in polyvinyl chloride sheets which can be directly compared to the sheets to be tested without using the comparator.

[2] = Static thermostability of stabilized resin, simplified method (GARDNER sub-scale), Compound C; conditions: 210° C
Experimental: as §1, §2, §3, §4, §5

[3] = Static thermostability of stabilized resin, GARDNER Scale Comparator, Compound B; conditions: 210° C
Experimental: as §1, §2, §3, §4
(§6) 1. The colouration of the sheets, of which samples were removed from the stove at fixed intervals was compared to a standard scale of colouration, known as the GARDNER Scale, and expressed in terms of the reference figures of the GARDNER Scale.
(§7) Comparisons were made with a GARDNER Scale Comparator which contains 18 filters of coloured glass and which offers the possibility of observing by transparency and in a limited field of view both the sheet and the reference filters.
Compound B was used and the sheets obtained presented the following characteristics: […]

[4] = Static thermostability of stabilized resin, simplified method (GARDNER sub-scale), Compound E; conditions: 185° C
Experimental: as §1, §2, §3, §4, §5

[5] = Static thermostability of stabilized resin, GARDNER Scale Comparator, Compound A; conditions: 185° C
Experimental: as §1, §2, §3, §4, §6, §7

[6] = Acute toxicity by oral route in mice (LD50); type: in vivo; conditions: mouse, in vivo, gummy suspension
Experimental: (§8) The study of the acute toxicity of the stabilizers listed below was carried out by determining the dose of substance which provoked the death of 50% of the treated animals (LD50). A gummy suspension of the substance under study was administered by oral route to groups of at least ten mice and the following results were observed: […]

[7] = test system: mice; experiment: Acute toxicity by oral route in mice (LD50); type: in vivo; conditions: LD50 study
Experimental: as §8

[8] = Sticking of the stabilized material; conditions: cylinders at 210° C, 3 min mixing / 3 min rest
Experimental: Compounds Nos. 609 and 675 were placed in a mixer of the type previously used for studying static thermostability with cylinders at a fixed temperature of 210° C.
They were submitted to alternate periods of 3 minutes of mixing and 3 minutes of rest.

[9] = Thermostability of the stabilizers: thermogravimetric analysis; type: physicochemical; conditions: 80° C/hour, under air
Experimental: The thermostability of Stabilizer 8 and that of 2-phenyl-indole were studied by differential thermoanalysis and by thermogravimetric analysis.
This analysis necessitated two series of trials carried out under air and under inert gas (Argon) in order to eliminate any possible effect of oxygen. The results obtained were identical.
The temperature increase rate was 80° C/hour. Thermograms were drawn up under air for both 2-phenyl-indole (i) and for Stabilizer 8 (ii) and enabled the following conclusion to be drawn: […]

[10] = Static thermostability of stabilized resin, simplified method (GARDNER sub-scale), Compound A; conditions: 210° C
Experimental: as §1, §2, §3, §4, §5
Finally, trials were carried out with Stabilizers 15, 16 and 17 and with 2-phenyl-indole. Compound A was used and the temperature was 210° C.

[11] = type: physicochemical
Description: The thermostability of Stabilizer 8 and that of 2-phenyl-indole were studied by differential thermoanalysis and by thermogravimetric analysis. […] Diagrams were made out for 2-phenyl-indole (i) and Compound 8 (ii) and enabled the following conclusions to be drawn: […]

[12] = Sublimation of the stabilizers; type: physicochemical; conditions: 120° C, cold wall 13° C, 15 Torr, 150 min
Description: A sample of the substance to be tested was introduced into a test tube and heated under reduced pressure. The fraction of sublimated substance was recovered on a mobile cold wall.
After a certain period of time, the sublimated substance was weighed and the result expressed as a percentage of the weight of the starting-material.
The results obtained can only be of relative value, enabling a comparison to be made between two products tested under the same conditions.
Operating conditions (chosen at random).
Temperature of heating 120° C
Temperature of the cold wall
Duration of heating 150 minutes

With `c1ccc(-c2cc3ccccc3[nH]2)cc1` [2-phenyl-indole] the “Colouration of sheet (GARDNER sub-scale)” value ([1]; 0 min) was 1 GARDNER degrees, the “Colouration of sheet (GARDNER sub-scale)” value ([1]; 10 min) was 2 GARDNER degrees and the “Colouration of sheet (GARDNER sub-scale)” value ([1]; 20 min) was greater than 2 GARDNER degrees. For the same molecule, the “Colouration of sheet (GARDNER sub-scale)” value ([1]; 30 min) was 3 GARDNER degrees, the “Colouration of sheet (GARDNER sub-scale)” value ([2]; 0 min) was 1 GARDNER degrees and the “Colouration of sheet (GARDNER sub-scale)” value ([2]; 10 min) was 1.5 GARDNER degrees. For the same molecule, the “Colouration of sheet (GARDNER sub-scale)” value ([2]; 20 min) was 2 GARDNER degrees, the “Colouration of sheet (GARDNER sub-scale)” value ([2]; 30 min) was less than 3 GARDNER degrees and the “Colouration of sheet (GARDNER sub-scale)” value ([2]; 40 min) was 3 GARDNER degrees. The “Colouration of sheet (GARDNER sub-scale)” value ([2]; 50 min) was greater than 3 GARDNER degrees, the “Colouration of sheet (GARDNER sub-scale)” value ([2]; 55 min) was 3.5 GARDNER degrees and the “Colouration of sheet (GARDNER sub-scale)” value ([2]; 60 min) was greater than 4 GARDNER degrees. The “Colouration of sheet (GARDNER Scale)” value ([3]; 0 min) was 1 GARDNER degrees, the “Colouration of sheet (GARDNER Scale)” value ([3]; 3 min) was 1 GARDNER degrees and the “Colouration of sheet (GARDNER Scale)” value ([3]; 6 min) was 2 GARDNER degrees. The “Colouration of sheet (GARDNER Scale)” value ([3]; 9 min) was 3 GARDNER degrees, the “Colouration of sheet (GARDNER Scale)” value ([3]; 12 min) was 4 GARDNER degrees and the “Colouration of sheet (GARDNER Scale)” value ([3]; 15 min) was 6 GARDNER degrees. The “Colouration of sheet (GARDNER Scale)” value ([3]; 18 min) was 8 GARDNER degrees, the “Colouration of sheet (GARDNER Scale)” value ([3]; 21 min) was greater than 18 GARDNER degrees and the Thickness of sheet ([3]; after 21 min) was 0.9 mm. For the same molecule, the State of sheet ([3]; after 24 min) was “burnt”, the “Colouration of sheet (GARDNER sub-scale)” value ([4]; 0 min) was less than 1 GARDNER degrees and the “Colouration of sheet (GARDNER sub-scale)” value ([4]; 10 min) was 1 GARDNER degrees. The “Colouration of sheet (GARDNER sub-scale)” value ([4]; 20 min) was 2 GARDNER degrees, the “Colouration of sheet (GARDNER sub-scale)” value ([4]; 30 min) was 3 GARDNER degrees and the “Colouration of sheet (GARDNER Scale)” value ([5]; 0 min) was 1 GARDNER degrees. The “Colouration of sheet (GARDNER Scale)” value ([5]; 6 min) was 1 GARDNER degrees, the “Colouration of sheet (GARDNER Scale)” value ([5]; 12 min) was 3 GARDNER degrees and the “Colouration of sheet (GARDNER Scale)” value ([5]; 18 min) was 5 GARDNER degrees. For the same molecule, the “Colouration of sheet (GARDNER Scale)” value ([5]; 24 min) was 11 GARDNER degrees, the “Colouration of sheet (GARDNER Scale)” value ([5]; 30 min) was 12 GARDNER degrees and the “Colouration of sheet (GARDNER Scale)” value ([5]; 36 min) was 14 GARDNER degrees. The “Colouration of sheet (GARDNER Scale)” value ([5]; 42 min) was 14 GARDNER degrees, the “Colouration of sheet (GARDNER Scale)” value ([5]; 48 min) was 14 GARDNER degrees and the “Colouration of sheet (GARDNER Scale)” value ([5]; 54 min) was “burnt”. The LD50 [6] was greater than 3000 mg/kg, the Toxic symptoms [7] was “none” and the “Sticking of the stabilized material” value [8] was “comparable”. The “Decomposition residue at 210° C” value [9] was “a yellowish residue was, in fact, obtained at 210 °C which constitutes proof of decomposition”, the “Colouration of sheet (GARDNER sub-scale)” value ([10]; 0 min) was 1 GARDNER degrees and the “Colouration of sheet (GARDNER sub-scale)” value ([10]; 3 min) was 2 GARDNER degrees and 1 GARDNER degrees. The “Colouration of sheet (GARDNER sub-scale)” value ([10]; 3 min, listed as 2-phenyl-inodle) was 2 GARDNER degrees, the “Colouration of sheet (GARDNER sub-scale)” value ([10]; 6 min) was 2.5 GARDNER degrees and 2 GARDNER degrees and 3 GARDNER degrees and the “Colouration of sheet (GARDNER sub-scale)” value ([10]; 6 min, listed as 2-phenyl-inodle) was 3 GARDNER degrees. For the same molecule, the “Colouration of sheet (GARDNER sub-scale)” value ([10]; 9 min, listed as 2-phenyl-inodle) was 8 GARDNER degrees, the “Colouration of sheet (GARDNER sub-scale)” value ([10]; 12 min) was 11 GARDNER degrees and 10 GARDNER degrees and 9 GARDNER degrees and the “Colouration of sheet (GARDNER sub-scale)” value ([10]; 12 min, listed as 2-phenyl-inodle) was 11 GARDNER degrees. For the same molecule, the “Colouration of sheet (GARDNER sub-scale)” value ([10]; 15 min) was 13 GARDNER degrees and 12 GARDNER degrees and 14 GARDNER degrees, the “Colouration of sheet (GARDNER sub-scale)” value ([10]; 15 min, listed as 2-phenyl-inodle) was 12 GARDNER degrees and the “Colouration of sheet (GARDNER sub-scale)” value ([10]; 18 min) was “burnt”. For the same molecule, the Burning of sheet ([10]; at 15 min) was “burnt along its edges; also recorded: badly burnt”, the “Temperature from which it particularly sublimates (melting point)” value [11] was 185-190 °C and the “Loss of water at 100° C” value ([11]; 2° C/minute) was “no loss of water at 100 °C”. The Sublimation temperature ([11]; 2° C/minute) was 140 °C and the “Percentage of sublimated substance” value [12] was 26.9%.

With `CCCCC(CC)COc1ccc(-c2cc3ccccc3[nH]2)cc1` (centres unmarked) [Stabilizer 7, 2-(2"-ethyl-4'-hexyloxy-phenyl)-indole] the “Colouration given to the co-polymer” value [1] was “less yellow with Stabilizer 7 than with 2-phenyl-indole”, the “Static thermostability compared with 2-phenyl-indole” value [1] was “markedly superior to 2-phenyl-indole” and the “Colouration of sheet (GARDNER sub-scale)” value ([1]; 0 min) was less than 1 GARDNER degrees. For the same molecule, the “Colouration of sheet (GARDNER sub-scale)” value ([1]; 10 min) was less than 2 GARDNER degrees, the “Colouration of sheet (GARDNER sub-scale)” value ([1]; 20 min) was 2 GARDNER degrees and the “Colouration of sheet (GARDNER sub-scale)” value ([1]; 30 min) was less than 3 GARDNER degrees. The “Colouration of sheet (GARDNER sub-scale)” value ([4]; 0 min) was less than 1 GARDNER degrees, the “Colouration of sheet (GARDNER sub-scale)” value ([4]; 10 min) was less than 1 GARDNER degrees and the “Colouration of sheet (GARDNER sub-scale)” value ([4]; 20 min) was less than 2 GARDNER degrees. The “Colouration of sheet (GARDNER sub-scale)” value ([4]; 30 min) was less than 3 GARDNER degrees, the LD50 [6] was greater than 2000 mg/kg and the Toxic symptoms [7] was “none”.
